Results from patent US10500198B2, “Bis-benzylidine piperidone proteasome inhibitor with anticancer activity” (The Johns Hopkins University, priority 2013, dated 2019).
Counter-ions that a name gives are not always drawn. Like-named read-outs stand apart in the source and are kept apart here. Where a SMILES comes first, the peptide text is derived from it. The star is where a group is joined. Cbz = O=C(OCc1ccccc1)*

What was measured:
HeLa = assay: Cell viability after 48-hr treatment (Table 1); type: cell-based, human; settings: for IC50: read-out: IC50, HeLa; for potency in cell killing and polyubiquitin accumulation / functional assays relative to RA190: HeLa cells, FIGS. 1I, 9I, 10A-10C
Procedure: (§1) Cell viability was assayed using CellTiter 960 AQueous One Solution Reagent (Promega, Madison, Wis.). Cells seeded at the concentration of 1,000 cells/well for HeLa, 5,000 cells/well for ES2 and HCT116 and 10,000-20,000 cells/well for other cell lines in 100 μL medium in 96-well plate were treated with RA series compounds at specified concentrations. […]

OVCAR3 = assay: Cell viability after 48-hr treatment (Table 1); type: cell-based, human; settings: XTT assay
Procedure: as §1

CasKi = assay: Cell viability after 48-hr treatment (Table 1); type: cell-based; settings: read-out: IC50, CasKi
Procedure: (§2) Cell viability was assayed using CellTiter 960 AQueous One Solution Reagent (Promega, Madison, Wis.). Cells seeded at the concentration of 1,000 cells/well for HeLa, 5,000 cells/well for ES2 and HCT116 and 10,000-20,000 cells/well for other cell lines in 100 μL medium in 96-well plate were treated with RA series compounds at specified concentrations. After the indicated periods, cells were incubated according to the manufacturer's protocol with the MTS labeling mixture for 1-2 hr and absorbance at 490 nm measured using a Benchmark Plus microplate spectrophotometer (BIO-RAD).

HOK-16B = assay: Cell viability after 48-hr treatment (Table 1); type: cell-based; settings: read-out: IC50, HOK-16B
Procedure: as §2

HT3 = assay: Cell viability after 48-hr treatment (Table 1); type: cell-based; settings: read-out: IC50, HT3
Procedure: (§3) Cells seeded at the concentration of 1,000 cells/well for HeLa, 5,000 cells/well for ES2 and HCT116 and 10,000-20,000 cells/well for other cell lines in 100 μL medium in 96-well plate were treated with RA series compounds at specified concentrations. […]

HaCaT = assay: Cell viability after 48-hr treatment (Table 1); type: cell-based; settings: read-out: IC50, HaCaT
Procedure: as §3

SiHa = assay: Cell viability after 48-hr treatment (Table 1); type: cell-based; settings: read-out: IC50, SiHa
Procedure: as §3

C33A = assay: Cell viability after 48-hr treatment (Table 1); type: cell-based; settings: read-out: IC50, C33A
Procedure: as §1

FaDu = assay: Cell viability after 48-hr treatment (Table 1); type: cell-based; settings: read-out: IC50, FaDu
Procedure: as §1

SKOV3 = assay: Cell viability after 48-hr treatment (Table 1); type: cell-based; settings: read-out: IC50, SKOV3
Procedure: as §1

RPN13 = biological target: T1, RPN13 (Homo sapiens, UniProt Q16186); assay: Biotin labeling assay; type: binding; settings: cell lysate or purified RP, streptavidin-peroxidase blot
T1 construct: endogenous in cells; host or cells: HeLa, HS578T cell lysate
Procedure: FIGS. 10 A-10E show a series of graphs and immunoblots showing the effects of several compounds on cell viability and proteasome activity. […] 10B and 10C show immunoblots of the proteasome activity of cell lines treated with the indicated compounds. […] IC50 values were determined in triplicate. In FIG. 10B, HeLa cells were treated for 12 hr and the cell lysate was subjected to immunoblot analysis with anti-Ubiquitin antibody. In FIG. 10C, SiHa cells were treated with the indicated compounds for 12 hr and the lysate subjected to Western blot analysis with anti-Ubiquitin antibody. HeLa cell lysate was treated with RA190B, subjected to SDS-PAGE, and probed with streptavidin-peroxidase following protein transfer to a polyvinylidene difluoride (PVDF) membrane. The streptavidin-peroxidase bound to biotinylated cellular proteins, but a striking new band at 42 kDa appeared in RA190B-treated samples (FIG. 2A). […] IC50 values were determined in triplicate.
To eliminate the possibility that another RP component was required for RA190B interaction, RPN13 or an irrelevant protein (L2) was overexpressed in bacteria. Cell lysate harvested from bacteria either with or without […] induction of ectopic protein expression was labeled with RA190B and probed by blotting with streptavidin-peroxidase. RA190B reacted strongly with a 42 kDa protein only in lysates of bacteria expressing RPN13 (FIG. 2D). […] 800 μL fractions were collected and alternate fractions (1,3,5,7,9,11,13,15,17) were analyzed for the presence of proteasomal proteins (RPN13, RPN2, RPN1 and UCH37) by Western blot analysis.
Human cells (5×10^6 HeLa or 293TT cells) were lysed using MPER (Pierce) lysis buffer (500 μL). RPN13 or HPV L2 transformed bacterial cells (500 μL of culture) were centrifuged to harvest the cells which were re-suspended in 500 μL BPER (Pierce). Cell lysates were centrifuged at 10,000 rpm briefly (2 min) at 4° C. to remove cell debris. Lysate supernatant (200 μL) was pre cleared with streptavidin dyna beads (20 μL) for 1 h at 4° C. to remove non-specific biotin binding and incubated with compounds (indicated concentrations or 20 μM) at 4° C. for 1 hr. An equal amount of each sample (20 μL of lysate) was mixed with an equal volume of Laemmli sample buffer (20 μL) (BioRad) and was boiled for 5 min. […] (24 V). Membrane was blocked with 5% BSA in PBST for 1 hr at room temperature and washed for 20 min (3×PBST). Then the membrane was probed with HRP-streptavidin (1:10,000 in PBST) for 1 hr at room temperature and washed for 30 min (3×PBST) and developed using HyGLO chemiluminescent detection reagent (Denville) for biotin recognition. For the purified enzyme assay, 19S purified proteasome (R&D Systems, Cat. No. E-366) (500 ng) in 19S buffer (20 mM HEPES, 20 mM NaCl, 1 mM DTT, 15% Glycerol) was incubated with compounds (20 μM) for 1 hr at room temperature and mixed with an equal volume of Laemmli sample buffer (20 μL) (BioRad) and was boiled for 5 min. Each sample was loaded onto gel and followed the western blot protocol mentioned above.
Purified 19S proteasome (500 ng) was incubated with corresponding compounds for 30 min and subjected to immunoblot and probed with HRP-conjugated streptavidin. In FIG. 23, the single band at 42 KDa indicates Rpn13 binding to 195. RA183B (20 μM) is used as positive control for Rpn13 binding. Competition experiments were done with RA183 (100 μM) and RA195 (100 μM) along with RA195B (20 μM).

T1 sequence (Q16186 whole entry): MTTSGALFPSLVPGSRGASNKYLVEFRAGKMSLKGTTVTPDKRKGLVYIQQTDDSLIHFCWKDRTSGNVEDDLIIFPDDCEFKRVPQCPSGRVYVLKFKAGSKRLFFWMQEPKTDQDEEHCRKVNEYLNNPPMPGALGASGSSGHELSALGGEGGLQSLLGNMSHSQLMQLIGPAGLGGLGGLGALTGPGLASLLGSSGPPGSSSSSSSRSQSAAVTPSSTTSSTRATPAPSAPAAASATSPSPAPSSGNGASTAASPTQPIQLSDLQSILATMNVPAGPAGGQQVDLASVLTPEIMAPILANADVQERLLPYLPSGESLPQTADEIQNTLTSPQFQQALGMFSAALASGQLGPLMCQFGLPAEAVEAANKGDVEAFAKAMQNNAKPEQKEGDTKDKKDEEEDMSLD

Row | Molecule | IC50 (HeLa; 48-hr treatment, XTT assay) [nM] | IC50 (OVCAR3) [µM] | IC50 (CasKi; 48-hr treatment, XTT assay) [nM] | IC50 (HOK-16B; 48-hr treatment, XTT assay) [nM] | IC50 (HT3; 48-hr treatment, XTT assay) [µM] | IC50 (HaCaT; 48-hr treatment, XTT assay) [nM] | IC50 (SiHa; 48-hr treatment, XTT assay) [nM] | IC50 (C33A; 48-hr treatment, XTT assay) [µM] | IC50 (FaDu; 48-hr treatment, XTT assay) [µM] | IC50 (SKOV3; 48-hr treatment, XTT assay) [nM] | potency in cell killing and polyubiquitin accumulation / functional assays relative to RA190 (HeLa) | further results
1 | N[C@@H](Cc1ccccc1)C(=O)N1CC(=Cc2ccccc2Cl)C(=O)C(=Cc2ccccc2Cl)C1 [RA166, 3,5-bis(2-chlorobenzylidene)-1-(S-2-amino-3-phenyl)-piperidin-4-one-HCl salt] | 600 | > 5 | 1500 | > 5000 | > 5 | > 2500 | 2000 | > 5 | > 5 | > 2500 | – | –
2 | N[C@@H](Cc1ccccc1)C(=O)N1CC(Cc2ccc(Cl)c(Cl)c2)C(O)C(Cc2ccc(Cl)c(Cl)c2)C1 (some centres unmarked) [RA190R] | – | – | – | – | – | – | – | – | – | – | dramatically reduced activity | –
3 | N[C@@H](Cc1ccccc1)C(=O)N1C/C(=C\c2ccc(Cl)c(Cl)c2)C(=NO)/C(=C/c2ccc(Cl)c(Cl)c2)C1 [RA190O] | – | – | – | – | – | – | – | – | – | – | dramatically reduced activity | –
4 | CC(C)C[C@@H](C=O)NC(=O)[C@H](CC(C)C)NC(=O)[C@H](CC(C)C)NC(=O)OCc1ccccc1 [MG132, reference compound] (Cbz-Leu-Leu-Leu-aldehyde) | – | – | – | – | – | – | – | – | – | – | – | IC50 (HeLa; Homo sapiens, HeLa, 48 h): 750 nM; IC50 (CasKi; Homo sapiens, Ca-Ski, 48 h): 500 nM; IC50 (HOK-16B; 48 h): 700 nM; IC50 (HT3; Homo sapiens, HT-3, 48 h): > 5 µM; IC50 (HaCaT; Homo sapiens, HaCaT, 48 h): > 2500 nM; IC50 (SiHa; Homo sapiens, SiHa, 48 h): 2000 nM; IC50 (C33A; Homo sapiens, C-33-A, 48 h): > 5 µM; IC50 (FaDu; Homo sapiens, FaDu, 48 h): > 2.5 µM; IC50 (SKOV3; Homo sapiens, SK-OV-3, 48 h): > 2500 nM
5 | O=C(CCCC[C@@H]1SCC2NC(=O)NC21)NCCCC[C@H](NC(=O)OCC1c2ccccc2-c2ccccc21)C(=O)N1C/C(=C\c2ccc(Cl)c(Cl)c2)C(=O)/C(=C/c2ccc(Cl)c(Cl)c2)C1 (some centres unmarked) [RA195B] | – | – | – | – | – | – | – | – | – | – | – | labeling of / competition for RPN13 (42 kDa band) (RPN13): labels HeLa cell lysate at 42 KDa
6 | Cl.N[C@@H](Cc1ccccc1)C(=O)N1CC(C(SCCO)c2ccc(Cl)c(Cl)c2)C(=O)C(C(SCCO)c2ccc(Cl)c(Cl)c2)C1 (some centres unmarked) [RA190ME, 3,5-bis((2-hydroxyethylthio)(3,4-dichlorophenyl)methyl)-1-(S-2-amino-3-phenyl)-piperidin-4-one-HCl salt] | – | – | – | – | – | – | – | – | – | – | significantly reduced its potency | –
7 | N[C@@H](Cc1ccccc1)C(=O)N1CC(=Cc2ccccc2)C(=O)C(=Cc2ccccc2)C1 [RA181, 3,5-dibenzylidene-1-(S-2-amino-3-phenyl)-piperidin-4-one-HCl salt] | 350 | > 5 | 2000 | > 5000 | > 5 | > 2500 | 2000 | > 5 | > 5 | > 2500 | – | –
8 | N[C@@H](Cc1c[nH]cn1)C(=O)N1CC(=Cc2ccc(Cl)c(Cl)c2)C(=O)C(=Cc2ccc(Cl)c(Cl)c2)C1 [RA196, 3,5-bis(3,4-dichlorobenzylidene)-1-(S-1H-imidazol-4-yl) piperidin-4-one di HCl salt] | 600 | 2.5 | 1000 | 3000 | > 5 | > 2500 | 2000 | > 5 | > 5 | > 2500 | – | –
9 | 3,5-bis(3,4-dichlorobenzylidene)-1-(S-2-amino-3-(4-hydroxy)-phenyl)-piperidin-4-one HCl salt [RA213] | 600 | > 5 | 600 | 1500 | > 5 | > 2500 | 2500 | > 5 | > 5 | > 2500 | – | –
10 | O=C(CCCC[C@@H]1SCC2NC(=O)NC21)N[C@@H](Cc1ccccc1)C(=O)N1C/C(=C\c2ccc(Cl)c(Cl)c2)C(=O)/C(=C/c2ccc(Cl)c(Cl)c2)C1 (some centres unmarked) [RA190B] | – | – | – | – | – | – | – | – | – | – | did not affect its potency | labeling of / competition for RPN13 (42 kDa band) (RPN13): bound to the 42 kDa protein
11 | N[C@@H](Cc1ccccc1)C(=O)N1CC(=Cc2ccccc2F)C(=O)C(=Cc2ccccc2F)C1 [RA201, 3,5-bis(2-fluorobenzylidene)-1-(S-2-amino-3-phenyl)-piperidin-4-one-HCl salt] | 350 | > 5 | 2500 | 1500 | > 5 | > 2500 | 2000 | > 5 | > 5 | > 2500 | – | –
